Data taken from publication PMC11345841, “Exploring 2-Sulfonylpyrimidine Warheads as Acrylamide Surrogates for Targeted Covalent Inhibition: A BTK Story” (Journal of Medicinal Chemistry, 2024).
Like-named read-outs stand apart in the source and are kept apart here.

How the values were obtained:
FGFR2 = biological target: T1, FGFR2 (Homo sapiens, UniProt P21802); assay: KINOMEscan ScanTK; type: binding
T1 construct: purchased Eurofins DiscoverX KINOMEscan (scanTK)

EGFR(G719C) = biological target: T2, EGFR(G719C) (Homo sapiens, UniProt P00533, G719C); assay: KINOMEscan ScanTK; type: binding
T2 construct: purchased Eurofins DiscoverX KINOMEscan (scanTK)

ALK(C1156Y) = biological target: T3, ALK(C1156Y) (Homo sapiens, UniProt Q9UM73, C1156Y); assay: KINOMEscan ScanTK; type: binding
T3 construct: purchased Eurofins DiscoverX KINOMEscan (scanTK)

[1] = biological target: T4, ABL1(F317L)-nonphosphorylated (Homo sapiens, UniProt P00519, F317L); assay: KINOMEscan ScanTK; type: binding
T4 construct: purchased Eurofins DiscoverX KINOMEscan (scanTK)

EPHA5 = biological target: T5, EPHA5 (Homo sapiens, UniProt P54756); assay: KINOMEscan ScanTK; type: binding
T5 construct: purchased Eurofins DiscoverX KINOMEscan (scanTK)
T5 sequence (P54756 25-1037): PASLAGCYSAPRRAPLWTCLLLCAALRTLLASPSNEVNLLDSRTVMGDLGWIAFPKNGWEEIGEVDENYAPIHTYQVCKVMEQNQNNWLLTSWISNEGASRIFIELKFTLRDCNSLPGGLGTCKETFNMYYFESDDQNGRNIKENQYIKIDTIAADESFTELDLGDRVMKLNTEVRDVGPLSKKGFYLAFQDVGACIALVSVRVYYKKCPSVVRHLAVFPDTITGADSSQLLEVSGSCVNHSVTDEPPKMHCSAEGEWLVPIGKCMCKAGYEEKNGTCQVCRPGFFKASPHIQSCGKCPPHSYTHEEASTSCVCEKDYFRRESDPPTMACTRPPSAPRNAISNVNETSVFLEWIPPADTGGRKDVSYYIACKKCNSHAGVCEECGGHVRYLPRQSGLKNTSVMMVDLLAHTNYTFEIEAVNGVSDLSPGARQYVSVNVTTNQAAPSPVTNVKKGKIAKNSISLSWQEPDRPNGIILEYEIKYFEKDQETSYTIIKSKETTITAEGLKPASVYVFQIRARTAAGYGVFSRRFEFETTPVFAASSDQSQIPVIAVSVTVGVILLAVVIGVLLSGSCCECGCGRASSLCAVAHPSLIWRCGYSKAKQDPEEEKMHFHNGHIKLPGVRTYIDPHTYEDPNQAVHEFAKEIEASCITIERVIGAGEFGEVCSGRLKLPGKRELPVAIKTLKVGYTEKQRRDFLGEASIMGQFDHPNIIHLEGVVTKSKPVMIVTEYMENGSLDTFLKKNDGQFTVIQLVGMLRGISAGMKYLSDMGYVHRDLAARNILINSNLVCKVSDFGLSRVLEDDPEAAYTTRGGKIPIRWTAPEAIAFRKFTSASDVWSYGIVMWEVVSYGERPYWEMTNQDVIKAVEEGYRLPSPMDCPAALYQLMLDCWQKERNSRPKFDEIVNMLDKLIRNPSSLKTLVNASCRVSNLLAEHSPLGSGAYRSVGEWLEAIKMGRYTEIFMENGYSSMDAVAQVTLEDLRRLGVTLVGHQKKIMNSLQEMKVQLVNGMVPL

IGF1R = biological target: T6, IGF1R (Homo sapiens, UniProt P08069); assay: KINOMEscan ScanTK; type: binding
T6 construct: purchased Eurofins DiscoverX KINOMEscan (scanTK)

[2] = system: full-length wild-type BTK; assay: Intact protein mass spectrometry, covalent modification; type: binding; details: 2:1 ratio of compound to protein (40 μM/20 μM), 23 °C
Protocol: The proteins were injected into the sample loop and desalted for 3 min at 100 μL/min using water (0.1% formic acid) on an in-house packed POROS 20R-2 trap. Proteins were eluted into the mass spectrometer using a 15–70% ACN (0.1% formic acid) gradient in 10 min at a flow rate of 100 μL/min. Mass spectra were acquired using a Waters Synapt HDMSE mass spectrometer operated in TOF-only mode with a standard electrospray source, capillary voltage of 3200 V, and a cone voltage of 40 V with a mass range of 50–2000 m/z. Intact mass values for both free and labeled wild-type BTK were calculated from the raw m/z spectra using MaxEnt1 within MassLynx 4.1 (Waters) with a resolution of 0.05 Da and an output mass range of 65,000–85 000 Da.

[3] = Electrophilic reactivity assessment (GSH assay)
Protocol: Final volume: 1200 μL; final composition: 100 μM compound, 100 μM standard, 1 mM GSH, 5% v/v DMSO. The resulting mixture was kept at 20 °C. Reaction monitoring and rate determination: LC-MS traces of the mixture were acquired every 10 min. Normalized integrations of the starting material and/or product were plotted as a function of time (s), using the 4-hydroxybenzoic acid peak as standard for integral calibration/normalization, allowing extraction of pseudo-first-order reaction rate constants (k’). All measurements were performed in triplicate.

[4] = biological target: T7, EGFR(L747-S752del, P753S) (Homo sapiens, UniProt P00533, DEL747-752/P753S); assay: KINOMEscan ScanTK; type: binding
T7 construct: purchased Eurofins DiscoverX KINOMEscan (scanTK)
T7 sequence (P00533 with tags, fused parts or gaps DEL747-752/P753S limits assumed): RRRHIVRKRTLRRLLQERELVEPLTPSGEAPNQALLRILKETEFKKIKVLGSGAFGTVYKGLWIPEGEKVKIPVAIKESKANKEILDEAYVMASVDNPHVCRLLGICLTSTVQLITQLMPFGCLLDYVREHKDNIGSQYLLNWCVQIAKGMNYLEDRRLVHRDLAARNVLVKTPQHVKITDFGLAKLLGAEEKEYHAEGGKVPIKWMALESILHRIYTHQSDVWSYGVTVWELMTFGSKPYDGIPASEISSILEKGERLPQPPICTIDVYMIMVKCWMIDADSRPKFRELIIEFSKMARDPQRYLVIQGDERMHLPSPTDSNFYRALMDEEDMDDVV

BTK, full length (2–659) = BTK, full length (2–659) (Homo sapiens, UniProt Q06187); assay: Kinact/Ki determination, PhosphoSens progress curve analysis; type: biochemical
BTK, full length (2–659), sequence (Q06187 2-659): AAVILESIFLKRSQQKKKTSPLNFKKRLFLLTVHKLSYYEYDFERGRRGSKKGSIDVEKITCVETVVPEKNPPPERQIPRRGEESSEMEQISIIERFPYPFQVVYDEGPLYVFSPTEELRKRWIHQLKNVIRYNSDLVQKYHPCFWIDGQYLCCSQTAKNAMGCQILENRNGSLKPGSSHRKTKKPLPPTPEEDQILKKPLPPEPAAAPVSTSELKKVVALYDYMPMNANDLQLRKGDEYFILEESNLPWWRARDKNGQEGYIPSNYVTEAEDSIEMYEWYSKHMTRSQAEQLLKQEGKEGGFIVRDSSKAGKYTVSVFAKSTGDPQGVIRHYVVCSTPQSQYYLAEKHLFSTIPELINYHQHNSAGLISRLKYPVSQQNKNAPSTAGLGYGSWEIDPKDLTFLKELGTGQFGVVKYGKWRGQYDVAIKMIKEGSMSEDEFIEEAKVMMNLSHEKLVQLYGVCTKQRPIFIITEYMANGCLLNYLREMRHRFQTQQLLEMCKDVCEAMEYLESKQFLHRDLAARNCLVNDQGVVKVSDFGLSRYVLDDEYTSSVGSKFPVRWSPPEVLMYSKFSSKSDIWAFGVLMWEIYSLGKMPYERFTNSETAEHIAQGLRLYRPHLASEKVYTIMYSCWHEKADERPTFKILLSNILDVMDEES
Protocol: Nonlinear regression was performed using the Solver algorithm in Excel. […] Two-step Kinact/Ki fits were extracted from the progress curve analysis of all compounds against BTK, enabling independent Kinact and Ki determinations.

OCI-LY7 cells = assay: Anti-IgM-induced Ca2+ flux assay; type: cell-based, human; details: 1 h pretreatment, 1000 nM or lower concentrations
Protocol: The effects of compounds on Ca^2+ release were then analyzed following treatment of OCI-LY7 cells (derived from a diffuse large B-cell lymphoma (DLBCL)) with anti-IgM to cross-link surface IgM (sIgM). […] For 8a and 8d, we performed similar experiments at lower concentrations.
Flow cytometry was performed using a FACS Canto II system (BD Biosciences). Data was acquired for 30 s before cells were stimulated with goat antihuman F(ab’)2 anti-IgM and data were acquired for a further 3.5 min. Cells were then treated with ionomycin (1 μM; Merck) and data were acquired for 2 min. Calcium responses were quantified by calculating area under the curve (AUC) in FlowJo (Becton Dickinson) from the point of addition of anti-IgM to the addition of ionomycin.

[5] = biological target: T8, ABL1(H396P)-phosphorylated (Homo sapiens, UniProt P00519, H396P); assay: KINOMEscan ScanTK; type: binding
T8 construct: purchased Eurofins DiscoverX KINOMEscan (scanTK)

FGFR1 = biological target: T9, FGFR1 (Homo sapiens, UniProt P11362); assay: KINOMEscan ScanTK; type: binding
T9 construct: purchased Eurofins DiscoverX KINOMEscan (scanTK)
T9 sequence (P11362 22-822): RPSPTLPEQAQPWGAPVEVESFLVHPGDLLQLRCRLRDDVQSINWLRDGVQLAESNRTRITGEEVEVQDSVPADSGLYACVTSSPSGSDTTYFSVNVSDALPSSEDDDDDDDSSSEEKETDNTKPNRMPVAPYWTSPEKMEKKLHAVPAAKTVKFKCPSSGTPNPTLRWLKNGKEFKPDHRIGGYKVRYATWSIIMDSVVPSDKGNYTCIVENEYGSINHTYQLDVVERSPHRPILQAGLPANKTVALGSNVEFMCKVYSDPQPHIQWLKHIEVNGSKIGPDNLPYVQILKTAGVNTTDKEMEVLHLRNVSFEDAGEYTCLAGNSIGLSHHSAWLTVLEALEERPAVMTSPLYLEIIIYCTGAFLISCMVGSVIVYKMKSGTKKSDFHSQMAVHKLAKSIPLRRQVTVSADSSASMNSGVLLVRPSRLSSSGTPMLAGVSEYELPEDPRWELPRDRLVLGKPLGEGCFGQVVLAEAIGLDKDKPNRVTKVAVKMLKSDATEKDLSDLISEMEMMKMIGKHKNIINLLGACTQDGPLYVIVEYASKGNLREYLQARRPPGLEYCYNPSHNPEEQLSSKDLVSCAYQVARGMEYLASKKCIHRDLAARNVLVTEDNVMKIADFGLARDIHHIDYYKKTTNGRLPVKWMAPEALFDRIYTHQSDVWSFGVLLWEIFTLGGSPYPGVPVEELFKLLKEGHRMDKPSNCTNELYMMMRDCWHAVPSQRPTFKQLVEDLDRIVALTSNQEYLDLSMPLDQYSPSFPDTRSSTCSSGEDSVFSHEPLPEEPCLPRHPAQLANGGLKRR

HCK = biological target: T10, HCK (Homo sapiens, UniProt P08631); assay: KINOMEscan ScanTK; type: binding
T10 construct: purchased Eurofins DiscoverX KINOMEscan (scanTK)
T10 sequence (P08631 whole entry): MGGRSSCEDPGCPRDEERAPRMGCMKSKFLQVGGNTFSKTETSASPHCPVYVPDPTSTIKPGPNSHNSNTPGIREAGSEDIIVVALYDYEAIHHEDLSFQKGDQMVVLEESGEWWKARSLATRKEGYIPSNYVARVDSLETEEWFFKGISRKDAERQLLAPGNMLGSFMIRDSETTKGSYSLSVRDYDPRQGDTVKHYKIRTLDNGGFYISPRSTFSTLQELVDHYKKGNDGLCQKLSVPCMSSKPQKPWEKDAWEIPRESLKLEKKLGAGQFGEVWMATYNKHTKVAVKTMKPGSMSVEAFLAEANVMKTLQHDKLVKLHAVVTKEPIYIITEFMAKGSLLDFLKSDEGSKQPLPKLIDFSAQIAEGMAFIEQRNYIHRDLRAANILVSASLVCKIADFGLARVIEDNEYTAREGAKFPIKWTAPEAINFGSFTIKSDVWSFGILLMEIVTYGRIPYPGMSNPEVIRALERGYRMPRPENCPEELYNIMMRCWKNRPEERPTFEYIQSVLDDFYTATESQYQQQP

EPHA6 = biological target: T11, EPHA6 (Homo sapiens, UniProt Q9UF33); assay: KINOMEscan ScanTK; type: binding
T11 construct: purchased Eurofins DiscoverX KINOMEscan (scanTK)
T11 sequence (Q9UF33 23-1036): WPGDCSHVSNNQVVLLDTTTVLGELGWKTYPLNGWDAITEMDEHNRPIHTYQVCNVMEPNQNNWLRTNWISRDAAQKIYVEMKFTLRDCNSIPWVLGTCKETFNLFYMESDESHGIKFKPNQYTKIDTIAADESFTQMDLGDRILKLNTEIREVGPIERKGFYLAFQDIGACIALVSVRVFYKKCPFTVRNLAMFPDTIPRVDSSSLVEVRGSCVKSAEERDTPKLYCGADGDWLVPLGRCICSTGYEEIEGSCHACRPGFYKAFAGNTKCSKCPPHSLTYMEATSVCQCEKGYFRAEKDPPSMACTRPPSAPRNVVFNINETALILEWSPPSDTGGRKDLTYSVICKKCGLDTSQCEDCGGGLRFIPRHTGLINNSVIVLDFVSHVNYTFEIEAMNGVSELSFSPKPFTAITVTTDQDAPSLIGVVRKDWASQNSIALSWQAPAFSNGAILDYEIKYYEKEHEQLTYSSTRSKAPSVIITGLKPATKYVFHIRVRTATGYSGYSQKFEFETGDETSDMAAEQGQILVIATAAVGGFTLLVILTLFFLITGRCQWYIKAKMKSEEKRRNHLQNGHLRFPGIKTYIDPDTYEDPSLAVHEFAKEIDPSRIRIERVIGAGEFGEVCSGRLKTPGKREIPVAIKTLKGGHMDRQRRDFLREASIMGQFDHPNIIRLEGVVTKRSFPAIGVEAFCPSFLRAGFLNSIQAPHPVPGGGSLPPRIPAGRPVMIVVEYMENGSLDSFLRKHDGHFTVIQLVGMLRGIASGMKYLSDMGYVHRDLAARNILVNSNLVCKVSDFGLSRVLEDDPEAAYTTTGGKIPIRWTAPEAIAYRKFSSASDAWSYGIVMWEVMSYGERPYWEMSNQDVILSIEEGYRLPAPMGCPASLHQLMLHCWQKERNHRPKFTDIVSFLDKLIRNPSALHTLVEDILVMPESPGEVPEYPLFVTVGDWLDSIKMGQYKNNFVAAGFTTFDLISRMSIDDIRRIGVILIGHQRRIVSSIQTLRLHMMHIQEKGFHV

T1 sequence (P21802 22-821): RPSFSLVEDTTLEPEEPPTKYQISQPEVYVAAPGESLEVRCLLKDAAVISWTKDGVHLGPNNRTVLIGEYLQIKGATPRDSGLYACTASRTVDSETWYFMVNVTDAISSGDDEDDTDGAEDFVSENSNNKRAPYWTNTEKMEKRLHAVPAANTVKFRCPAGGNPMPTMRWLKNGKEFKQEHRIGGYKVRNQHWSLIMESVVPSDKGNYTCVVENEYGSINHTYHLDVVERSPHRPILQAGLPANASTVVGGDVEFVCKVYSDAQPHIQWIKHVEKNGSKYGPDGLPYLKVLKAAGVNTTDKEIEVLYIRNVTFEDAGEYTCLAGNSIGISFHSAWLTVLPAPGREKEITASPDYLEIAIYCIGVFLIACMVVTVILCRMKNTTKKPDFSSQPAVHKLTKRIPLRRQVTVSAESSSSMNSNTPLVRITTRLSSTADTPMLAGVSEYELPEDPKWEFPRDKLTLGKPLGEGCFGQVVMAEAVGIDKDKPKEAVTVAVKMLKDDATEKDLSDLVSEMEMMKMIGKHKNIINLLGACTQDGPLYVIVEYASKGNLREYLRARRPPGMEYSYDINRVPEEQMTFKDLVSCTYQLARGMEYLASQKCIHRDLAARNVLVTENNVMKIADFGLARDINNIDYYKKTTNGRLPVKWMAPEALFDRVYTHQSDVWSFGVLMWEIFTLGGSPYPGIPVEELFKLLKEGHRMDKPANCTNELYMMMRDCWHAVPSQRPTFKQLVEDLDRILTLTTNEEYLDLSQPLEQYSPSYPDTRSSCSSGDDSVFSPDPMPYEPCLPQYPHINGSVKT

SMILES: CNC(=O)c1cnc(S(C)(=O)=O)nc1N1CCCC(n2nc(-c3ccc(Oc4ccccc4)cc3)c3c(N)ncnc32)C1 (centres unmarked) [Compound 8d, 4-(3-(4-Amino-3-(4-phenoxyphenyl)-1H-pyrazolo[3,4-d]pyrimidin-1-yl)piperidin-1-yl)-N-methyl-2-(methylsulfonyl)pyrimidine-5-carboxamide]
- difference in %Control vs compound Ib at 1 µM (FGFR2; @1000nM): 35%
- remaining binding at 1 µM (FGFR2; @1000nM, read-out: %Control): 74%
- remaining binding at 1 µM (FGFR2; read-out: %Control @1000nM): 74%
- difference in %Control vs compound Ib at 1 µM (EGFR(G719C); @1000nM): -0.45%
- remaining binding at 1 µM (EGFR(G719C); @1000nM, read-out: %Control): 0.65%
- remaining binding at 1 µM (EGFR(G719C); read-out: %Control @1000nM): 0.65%
- difference in %Control versus compound Ib at 1 µM (ALK(C1156Y); @1000nM): -10%
- remaining binding at 1 µM (ALK(C1156Y); @1000nM, read-out: %Control): 88%
- remaining binding at 1 µM (ALK(C1156Y); read-out: %Control @1000nM): 88%
- difference in % of control binding versus compound Ib at 1 µM ([1]; @1000nM): 22%
- remaining binding at 1 µM ([1]; @1000nM, read-out: %Control): 54%
- remaining binding at 1 µM ([1]; read-out: %Control @1000nM): 54%
- difference in %Control from compound Ib at 1 µM (EPHA5; @1000nM): 4%
- remaining binding at 1 µM (EPHA5; @1000nM, read-out: %Control): 100%
- remaining binding at 1 µM (EPHA5; read-out: %Control @1000nM): 100%
- % Control difference from reference compound Ib at 1 µM (IGF1R; @1000nM): 4%
- remaining binding at 1 µM (IGF1R; @1000nM, read-out: %Control): 100%
- remaining binding at 1 µM (IGF1R; read-out: %Control @1000nM): 100%
- covalent modification of full-length WT BTK (intact mass) [2]: clean and quantitative modification in under an hour
- pseudo-first-order rate constant kGSH/PBS ([3]; 100 μM compound, 1 mM GSH, PBS pH 7.4, 20 °C, triplicate): 47 × 10^–5 ± 0.5 × 10^–5 s^–1
- stability/reactivity with 10-fold excess of GSH in PBS ([3]; up to 6 h at 20 °C, LC-MS): mild reactivity
- difference in %Control versus compound Ib at 1 µM ([4]; @1000nM): 36.5%
- remaining binding at 1 µM ([4]; @1000nM, read-out: %Control): 42%
- remaining binding at 1 µM ([4]; read-out: %Control @1000nM): 42%
- kinact/KI (BTK, full length (2–659)): 2.49e+06 M⁻¹ s⁻¹
- Ki (BTK, full length (2–659); BTK): 5.07 ± 0.36 nM
- fold reduction of Kinact/Ki (potency) relative to 1g (BTK, full length (2–659); BTK): 3 fold
- kinact (BTK, full length (2–659); BTK): 0.0126 ± 0.00067 s⁻¹
- effect on anti-IgM-induced Ca2+ flux (OCI-LY7 cells): maintained for these compounds at concentrations down to 250 nM
- %Control difference versus compound Ib at 1 µM ([5]; @1000nM): -1%
- remaining binding at 1 µM ([5]; @1000nM, read-out: %Control): 79%
- remaining binding at 1 µM ([5]; read-out: %Control @1000nM): 79%
- difference in %Control from compound Ib at 1 µM (FGFR1; @1000nM): 45%
- remaining binding at 1 µM (FGFR1; @1000nM, read-out: %Control): 78%
- remaining binding at 1 µM (FGFR1; read-out: %Control @1000nM): 78%
- difference in %Control from compound Ib at 1 µM (HCK; @1000nM): 6.8%
- remaining binding at 1 µM (HCK; @1000nM, read-out: %Control): 12%
- remaining binding at 1 µM (HCK; read-out: %Control @1000nM): 12%
- difference in %Control from compound Ib at 1 µM (EPHA6; @1000nM): 20%
- remaining binding at 1 µM (EPHA6; @1000nM, read-out: %Control): 97%
- remaining binding at 1 µM (EPHA6; read-out: %Control @1000nM): 97%
